Measured values reported in US20180339015A1, “Therapeutic Nanoparticles Comprising An Antibiotic and Methods of Making and Using Same” (priority 2015, published 2018).

Tests used:
K. pneumonia = K. pneumonia lung infection model; type: in vivo; conditions: single 40 mg/kg dose s.c., n=6
Method: CS-NPs were tested for their efficacy in a K. pneumonia lung infection model. Results are depicted in FIG. 11.

Klebsiella = Klebsiella thigh infection model, efficacy and biodistribution; type: in vivo
Method: CS-NPs were further tested for their efficacy and biodistribution in a Klebsiella thigh infection model. […] In summary. CS-NPs have the same efficacy as free CS in a thigh infection model after 24 hours.

[1] = mice, intravenous injection
Acinetobacter species = conditions: cited from earlier work
P. aeruginosa = conditions: cited from earlier work
K. pneumoniae = conditions: cited from earlier work
E. coli = conditions: cited from earlier work
Enterobacter spp = conditions: cited from earlier work
Salmonella spp = conditions: cited from earlier work
Shigella spp = conditions: cited from earlier work
Citrobacter spp = conditions: cited from earlier work

Substance | animals sterilized (K. pneumonia) [%] | bacteremia (Klebsiella; thigh infection model) | bacteria counts in site of infection (Klebsiella; thigh, after 24 hours) | LD50 [1] [mg/kg] | MTD [1] [mg/kg] | MIC90 (Acinetobacter species) [µg/mL] | MIC90 (P. aeruginosa) [µg/mL] | MIC90 (K. pneumoniae) [µg/mL] | MIC90 (E. coli) [µg/mL] | MIC50 (Enterobacter spp) [µg/mL] | MIC90 (Salmonella spp) [µg/mL] | MIC90 (Shigella spp) [µg/mL] | MIC90 (Citrobacter spp) [µg/mL]
colistin sulphate [CS] | 50 | prevented bacteremia | significantly decreased bacteria counts | 6 | 2 |  |  |  |  |  |  |  | 
colistin |  |  |  |  |  | ≤ 2 | ≤ 4 | ≤ 1 | ≤ 2 | ≤ 1 | ≤ 1 | ≤ 0.5 | ≤ 1
